Like-named read-outs stand apart in the source and are kept apart here.
What was measured:
KDM4 = experiment: biochemical activities (KDM4 inhibition); conditions: KDM4 isoforms, FIG. 1
[1] = tested on: immature and mature cell markers in SU60 xenograft tumor cells; experiment: single cell gene expression analysis (RT-qPCR) of SU60 xenograft tumors; assay type: in vivo; conditions: treated vs vehicle
Excerpt: FIG. 22 illustrates the heatmap representation of single cells gene expression analysis (RT-qPCR) from SU60 xenograft tumors treated with vehicle control or Compound 1. A) Heatmap representation of single cells gene expression analysis (RT-qPCR) from SU60 xenograft tumors treated with vehicle control or Compound 1. Gene expression levels are colored-coded with red for high expression, green low expression and gray not expressed. Three clusters of cells were identified based on shared patterns of gene expression using a gene-set of immature and mature cell markers. […] The top dendrogram clusters genes with similar expression pattern across all cells. Gene expression (in Ct values) was mean-centered at 0 and divided by 2.5 time the standard deviation. B) This graph represents the total number of vehicle-treated and compound 1 treated cells within each cluster. P-values (Fisher's exact test) are represented on top of the bars.
Vehicle control and Compound 1-treated samples were characterized by single cell transcriptional profiling with a gene-set designed to discriminate immature colon progenitor cells and more mature cell-types (Dalerba, 2011). […] Using hierarchical clustering analysis, three clusters based on expression of a subset of immature and mature cell markers were identified. […]

[2] = tested on: erythroid hematopoietic progenitor cells derived from human bone marrow; experiment: erythroid colony formation of hematopoietic progenitor cells; assay type: cell-based
Experimental: Compound 1 was evaluated for its effects on proliferation of erythroid and myeloid hematopoietic progenitor cells derived from human bone marrow at […] Technologies Inc. (Vancouver, BC, Canada).
Cells were thawed rapidly at 37° C. into DNAse I and then diluted in 10 mL of Iscove's Modified Dulbecco's medium containing 2% fetal bovine serum (IMDM+2% FBS) and washed by centrifugation (1200 rpm for 10 minutes at room temperature). The supernatant was discarded and the cell pellet resuspended in a known volume of IMDM+2% FBS. A nucleated cell count (3% glacial acetic acid) and viability assessment (trypan blue exclusive test) were performed.
Compound 1 and positive control (panobinostat) were diluted in DMSO and tested at concentrations ranging from 0.002 μM to 5 μM in final media. These dilutions provided the appropriate final test concentrations required for the test and control articles ([…], and 0.002 μM).
Test and control articles were incubated with human bone marrow hematopoietic progenitor cells. After 14 days, cell colonies were assessed.
To calculate the concentration of 50% and 90% inhibition of colony growth (IC50 and IC90) for each test article, a dose response curve was generated plotting the log of the test article concentration versus the percentage of control colony growth using GraphPad Prism. […] The IC50 and IC90 values for both test and control articles were derived from an interpolation of the curve fit. In cases where the IC50/90 value reported by GraphPad Prism is a value beyond the range of concentrations that were actually tested, if this value is more than 4 times the highest concentration tested, or where GraphPad Prism cannot calculate an IC50/90 value, notations of >5 μM (for test article compound 1) are used.

[3] = tested on: KYSE-150 human esophageal cancer xenograft; assay type: in vivo; conditions: for Median Tumor Volumes Day 19: KYSE-150 CDX Study #1, female NSG mice; for % TGI / Median Tumor Volumes Diff.: KYSE-150 Study #1; for % TGI: Day 19; for Median Tumor Volumes Diff.: Day 19 minus Day 1
Experimental: The therapeutic in vivo efficacy of Compound 1 was evaluated in SU60 colorectal cancer, KYSE-150 esophageal cancer, COH70 triple-negative breast cancer, GXA-3036 gastric adenocarcinoma and OCI-LY19 Diffuse Large B-Cell Non-Hodgkin's Lymphoma xenograft models. In all studies, efficacy was determined based on percent tumor growth inhibition (TGI), differences in mean tumor growth, and statistical assessment of differences in net tumor volume distributions on the day of TGI analysis between control and treated animals. Tolerability was assessed based on differences in mean body weights between control and treated animals over the course of the study.
Study #1—The in vivo therapeutic efficacy and tolerability of Compound 1, administered orally as the lysine salt suspended in a vehicle comprised of 10% PEG 400 and 90% of 0.5% methylcellulose (MC), was evaluated in the KYSE-150 ESCC CDX model established in female NSG mice. As presented in Table 5, […] at 5, 15, or 50 mg/kg (free acid equivalents) administered on the 3 on/4 off schedule yielded dose-dependent TGIs of 19%, 50%, and 72%, respectively. […] As shown in FIG. 11 (left panel), tumor growth in the Compound 1-treated groups was reduced relative to control animals. The relative rates of tumor growth among the various Compound 1-treated groups were consistent with the TGI attained at study end. As presented in FIG. 11 (right panel), Compound 1 appeared well-tolerated with nominal mean body weight gains over the course of the study. Each mouse was inoculated subcutaneously in the right flank with 1×10^7 KYSE-150 tumor cells (0.1 ml) suspended in PBS. When the average tumor size reached ˜117 mm3, test animals were randomized into 4 groups consisting of 9 mice per group and treatments were initiated. Control mice received 10% PEG 400 and 90% of 0.5% MC vehicle PO 3 on/4 off. Treated mice received the Compound 1 lysine salt form suspended in vehicle at 5, 15, or 50 mg/kg on the same schedule. TGI was determined on Day 19 as (1−Difftreated/Diffcontrol)×100; The difference mean net tumor volumes on the day of TGI analysis for treated versus control animals was evaluated statistically using one-way ANOVA followed by Dunnett's multiple comparisons test; Adjusted p-values are shown where a calculated probability (p)≤0.05 was considered statistically significant. Individual tumors were measured twice weekly in three dimensions using a caliper, and the tumor volumes (TV) in mm3 were calculated using the formula: TV=0.5 (l×w×h), where l, w, and h are the tumor length, width, and height in mm, respectively; Mean tumor volumes SEM were calculated and plotted versus days of dosing (left panel). Body weights were measured twice weekly. Body weights±SEM were calculated and plotted versus days of dosing (right panel).

CC(C)c1ccc(N(C)c2ccc3c(c2)OCC[C@H]3CNc2cnccc2C(=O)O)cc1 [Compound 1, 3-({[(4R)-7-{methyl[4-(propan-2-yl)phenyl]amino}-3,4-dihydro-2H-1-benzopyran-4-yl]methyl}amino)pyridine-4-carboxylic acid]
biochemical activities (KDM4): potent PAN KDM4 inhibitor
change in the proportion of progenitor-like cells ([1]; p=0.01): significant reduction
change in number of intermediate-like and differentiated-like cells ([1]; p=0.07): increase was not significant
IC50 ([2]; 336 h, human bone marrow progenitor cells, 14 days, read-out: IC50, inhibition of erythroid colony formation): > 5 µM
IC90 ([2]; 336 h, human bone marrow progenitor cells, colony growth after 14 days): > 5 µg/mL
IC50 ([2]; 336 h, human bone marrow progenitor cells, colony growth after 14 days, read-out: Erythroid IC50): > 5 µg/mL
concentrations at which colony morphology (size and density) was slightly compromised ([2]; erythroid derived colonies): ≥ 1.67 μM
effect on colony formation compared to 0.1% DMSO ([2]; progenitor cells from normal human bone marrow, p>0.01): no significant effect
Median Tumor Volumes Day 19 ([3]; lysine salt 5 mg/kg (free acid equivalents) PO 3 on/4 off): 824 mm^3
Median Tumor Volumes Day 19 ([3]; lysine salt 15 mg/kg (free acid equivalents) PO 3 on/4 off): 569 mm^3
Median Tumor Volumes Day 19 ([3]; lysine salt 50 mg/kg (free acid equivalents) PO 3 on/4 off): 359 mm^3
% TGI ([3]; 5 mg/kg PO 3 on/4 off, 5 mg/kg): 19%
% TGI ([3]; 5 mg/kg PO 3 on/4 off, listed as compound 4, 5 mg/kg): 19%
Median Tumor Volumes Diff. ([3]; 5 mg/kg PO 3 on/4 off): 719 mm^3
% TGI ([3]; 15 mg/kg PO 3 on/4 off, 15 mg/kg): 50%
% TGI ([3]; 15 mg/kg PO 3 on/4 off, listed as compound 4, 15 mg/kg): 50%
Median Tumor Volumes Diff. ([3]; 15 mg/kg PO 3 on/4 off): 442 mm^3
% TGI ([3]; 50 mg/kg PO 3 on/4 off, 50 mg/kg): 72%
% TGI ([3]; 50 mg/kg PO 3 on/4 off, listed as compound 4, 50 mg/kg): 72%
Median Tumor Volumes Diff. ([3]; 50 mg/kg PO 3 on/4 off): 250 mm^3

Source: patent US20250025451A1, “TREATMENT OF CANCER WITH KDM4 INHIBITORS” (Celgene Corporation, priority 2021, published 2025)
